Results on 3 compounds are retold here after patent US3985740A, “7-[D-(α-amino-α-phenyl-, 2-thienyl- and 3-thienylacetamido)]-3-(5-methylthiazol-2-yl)carbonylthiomethyl-3-cephem -4-carboxylic acids” (Bristol-Myers Company, priority 1974, dated 1976).

In brackets after ≈: the same amount, converted by molar mass. Where two headings read alike, the source gives them in different places. Bounds are passed on as bounds.

The test system of data set [1] is D. pneumoniae A9585. In words: M.I.C. by tube dilution. The data set is classed as cell-based. To be noted: Streptococcus pneumoniae, D. pneumoniae + 5% serum, 50% Nutrient Broth - 45% Antibiotic Assay Broth, overnight 37° C.
Data set [2] has as its system Str. pyogenes A9604. In words: M.I.C. by tube dilution. To be noted: Streptococcus pyogenes, Str. pyogenes + 5% serum, 50% Nutrient Broth - 45% Antibiotic Assay Broth, overnight 37° C. The data set is classed as cell-based.
Data set [3] relates to S. aureus Smith A9537. In words: M.I.C. by tube dilution. The class given is cell-based. The settings on record: Staphylococcus aureus, overnight 37° C., read-out: M.I.C.
The subject of data set [4] is S. aureus BX 1633-2 A9606. In words: M.I.C. by tube dilution. The data set is classed as cell-based. To be noted: Staphylococcus aureus, overnight 37° C., read-out: M.I.C.
Data set [5] has as its system S. aureus methicillin-resistant A15097. In words: M.I.C. by tube dilution. The class given is cell-based. The settings on record: Staphylococcus aureus, at 10^-^3 dilution, overnight 37° C.
Data set [6] has as its system S. aureus A9748. In words: M.I.C. by tube dilution. The settings on record: Staphylococcus aureus, overnight 37° C., read-out: M.I.C. The class given is cell-based.
The test system of data set [7] is Sal. enteritidis A9531. In words: M.I.C. by tube dilution. The class given is cell-based. To be noted: Salmonella enterica, ENTERITIDIS; at 10^-^4 dilution; overnight 37° C.; read-out: M.I.C.
Data set [8] concerns E. coli Juhl A15119. In words: M.I.C. by tube dilution. The class given is cell-based. To be noted: Escherichia coli, JUHLA15119.
The test system of data set [9] is E. coli A9675. In words: M.I.C. by tube dilution. The class given is cell-based. The settings on record: Escherichia coli, A9675; at 10^-^4 dilution; overnight 37° C.; read-out: M.I.C.
Data set [10] relates to K. pneumoniae A9977. In words: M.I.C. by tube dilution. The class given is cell-based. To be noted: Klebsiella pneumoniae, A9977; at 10^-^4 dilution; overnight 37° C.; read-out: M.I.C.
Data set [11] concerns K. pneumoniae A15130. In words: M.I.C. by tube dilution. The data set is classed as cell-based. The settings on record: Klebsiella pneumoniae, A15130, at 10^-^4 dilution, overnight 37° C.
For data set [12], the system named is Pr. mirabilis A9900. In words: M.I.C. by tube dilution. The settings on record: Proteus mirabilis, A9900; at 10^-^4 dilution; overnight 37° C.; read-out: M.I.C. The class given is cell-based.
Data set [13] relates to Pr. morganii A15153. In words: M.I.C. by tube dilution. The class given is cell-based. The settings on record: Morganella morganii, at 10^-^4 dilution, overnight 37° C., read-out: M.I.C.
Data set [14] has as its system Ps. aeruginosa A9843A. In words: M.I.C. by tube dilution. To be noted: Pseudomonas aeruginosa. The class given is cell-based.
Data set [15] concerns Ser. marcescens A20019. In words: M.I.C. by tube dilution. The class given is cell-based. The settings on record: Serratia marcescens.
The nature of data set [16]: Blood levels in the mouse after oral administration. The data set is classed as in vivo. To be noted: for concentration at 0.5 h / concentration at 1 h / concentration at 2 h / concentration at 3.5 h: blood, 100 mg/kg, read-out: Blood Level; for concentration at 0.5 h / concentration at 1 h / concentration at 2 h / concentration at 3.5 h / Blood Level: mouse, oral, 100 mgm./kg.; for concentration at 0.5 h / Blood Level: 0.5 hrs. after administration; for concentration at 1 h: 1 hr. after administration; for concentration at 2 h: 2 hrs. after administration; for concentration at 3.5 h: 3.5 hrs. after administration; for oral absorption: in words.
Experimental: Blood levels in the mouse after oral administration were
determined with the following results:

Data set [17] has as its system certain important pathogenic organisms. In words: In vitro activity in the primary screening tests (overall). The class given is cell-based. To be noted: in words. From the text: This combination of good oral absorption and high antibacterial activity in a cephalosporin while highly desirable is quite uncommon in compounds reported to date. […] To illustrate the unpredictability of oral absorption and antibacterial activity in a closely related series of cephalosporin compounds, Tables 1-8 below compare in vitro activities and oral absorption as tested in the mouse of the compounds of the formula ##SPC12##

[18] abbreviates: SMITHA9537, + 50% serum, at 10^-^4 dilution.
[19] abbreviates: BX16332A9606, at 10^-^2 dilution.
The mark [20] stands for this setting: BX16332A9606, at 10^-^3 dilution.

Consider `N[C@@H](C(=O)NC1C(=O)N2C(C(=O)O)=C(CSC(=O)c3nccs3)CS[C@H]12)c1ccccc1` (stereo partly drawn) [Compound 567, 7-[D-(-)-α-Aminophenylacetamido]-3-(thiazol-2-yl)carbonylthiomethyl-3-cephem-4-carboxylic acid], for which the MIC was 0.04 µg/mL in [1]; 0.04 µg/mL in data set [2]; 8 µg/mL in data set [3] (setting [18]); 0.3 µg/mL (≈ 0.612 µM) in [3] (SMITHA9537, at 10^-^4 dilution); 2 µg/mL (≈ 4.08 µM) in [4] (setting [19]); 0.6 µg/mL (≈ 1.22 µM) in [4] (setting [20]). The MIC in data set [5] was found to be 4 µg/mL (≈ 8.15 µM); in [6] (A9748, at 10^-^2 dilution), 16 µg/mL (≈ 32.6 µM); in data set [6] (A9748, at 10^-^3 dilution), 4 µg/mL (≈ 8.15 µM); in [7] it was 0.08 µg/mL (≈ 0.163 µM); in [8], 1 µg/mL (≈ 2.04 µM); in data set [9], 4 µg/mL (≈ 8.15 µM). Also, the MIC was 2 µg/mL (≈ 4.08 µM) in data set [10]; 8 µg/mL (≈ 16.3 µM) in data set [11] (read-out: M.I.C.); 2 µg/mL (≈ 4.08 µM) in data set [12]; 63 µg/mL (≈ 128 µM) in data set [13]; > 125 µg/mL in data set [14]; 125 µg/mL (≈ 255 µM) in data set [15]. Besides, in [16], the concentration at 0.5 h was found to be 16000 ng/mL. The concentration at 1 h in data set [16] was 14100 ng/mL. Also, in [16], the concentration at 2 h was determined as 3400 ng/mL. The concentration at 3.5 h in data set [16] was < 400 ng/mL. In [16], the oral absorption result is “good oral absorption properties”. In data set [17], the “activity relative to cephalexin” value was “excellent activity relative to cephalexin”.

On to `Cc1cnc(C(=O)SCC2=C(C(=O)O)N3C(=O)C(NC(=O)[C@H](N)c4ccccc4)[C@H]3SC2)s1` (stereo partly drawn) [Compound 586, 7-[D-(-)-α-Aminophenylacetamido]-3-(5-methylthiazol-2-yl)carbonylthiomethyl-3-cephem-4-carboxylic acid], for which the MIC is 0.16 µg/mL in [1]; 0.3 µg/mL in data set [2]; > 63 µg/mL in data set [3] (setting [18]); 0.3 µg/mL (≈ 0.595 µM) in [3] (SMITHA9537, at 10^-^4 dilution); 4 µg/mL (≈ 7.93 µM) in data set [4] (setting [19]); 0.6 µg/mL (≈ 1.19 µM) in data set [4] (setting [20]). In addition, the MIC stood at 4 µg/mL (≈ 7.93 µM) in [5]; 63 µg/mL (≈ 125 µM) in data set [6] (A9748, at 10^-^2 dilution); 8 µg/mL (≈ 15.9 µM) in [6] (A9748, at 10^-^3 dilution); 0.3 µg/mL (≈ 0.595 µM) in [7]; 2 µg/mL (≈ 3.96 µM) in data set [8]; 4 µg/mL (≈ 7.93 µM) in data set [9]. The MIC is 4 µg/mL (≈ 7.93 µM) in data set [10]; 32 µg/mL (≈ 63.4 µM) in data set [11] (read-out: M.I.C.); 16 µg/mL (≈ 31.7 µM) in data set [12]; 63 µg/mL (≈ 125 µM) in data set [13]; > 125 µg/mL in data set [14]; > 125 µg/mL in [15]. Further, in [16], the concentration at 0.5 h is 34800 ng/mL. For the same compound, in [16], the concentration at 1 h amounted to 30700 ng/mL. Besides, in data set [16], the concentration at 2 h worked out at 13000 ng/mL. Moreover, the concentration at 3.5 h in data set [16] came out at 7000 ng/mL. For the same compound, in data set [16], the oral absorption result was “good oral absorption properties”. Also, the “Blood Level” value in [16] was 34.8 µg/mL. In data set [17], the “activity relative to cephalexin” value is “excellent activity relative to cephalexin”.

For the compound `Cc1nc(C(=O)SCC2=C(C(=O)O)N3C(=O)C(NC(=O)[C@H](N)c4ccccc4)[C@H]3SC2)cs1` (stereo partly drawn) [Compound 607, 7-[D-α-aminophenylacetamido]-3-(2-methylthiazol-4-yl)carbonylthiomethyl-3-cephem-4-carboxylic acid], the MIC in [1] came to 0.16 µg/mL; in [2], 0.16 µg/mL; in data set [3] (setting [18]) it was 63 µg/mL; in [3] (SMITHA9537, at 10^-^4 dilution), 0.3 µg/mL (≈ 0.595 µM); in data set [4] (setting [19]), 4 µg/mL (≈ 7.93 µM); in data set [4] (setting [20]), 0.6 µg/mL (≈ 1.19 µM). Moreover, the MIC is 8 µg/mL (≈ 15.9 µM) in data set [5]; 16 µg/mL (≈ 31.7 µM) in data set [6] (A9748, at 10^-^2 dilution); 8 µg/mL (≈ 15.9 µM) in [6] (A9748, at 10^-^3 dilution); 0.6 µg/mL (≈ 1.19 µM) in data set [7]; 8 µg/mL (≈ 15.9 µM) in data set [8] (at 10^-^4 dilution, overnight 37° C., read-out: M.I.C.); 16 µg/mL (≈ 31.7 µM) in [9]. Besides, the MIC in data set [10] is 16 µg/mL (≈ 31.7 µM); in data set [11], 125 µg/mL (≈ 248 µM); in data set [12], 8 µg/mL (≈ 15.9 µM); in [13] it was 32 µg/mL (≈ 63.4 µM); in [14] it was > 125 µg/mL; in data set [15], > 125 µg/mL. In addition, in [16], the concentration at 0.5 h is 1200 ng/mL. Further, the concentration at 1 h in [16] is 1400 ng/mL. In [16], the concentration at 2 h came to 1300 ng/mL. The concentration at 3.5 h in data set [16] was found to be 1000 ng/mL. Also, the “Blood Level” value in [16] was 1.2 µg/mL.
